{"source": "patent US7148211B2", "about": "“Formulation for lipophilic agents” (Genzyme Corporation, priority 2002, dated 2006)", "key": {"[1]": {"test_system": "patients with advanced androgen-independent prostate cancer", "experiment": "Open-labeled clinical study of 1α,24-(OH)2D2 in advanced androgen-independent prostate cancer", "format": "in vivo", "conditions": "for progression of metastatic disease (CAT scans, X-rays, bone scans): second phase, after one and two years", "excerpt": "(§1) Patients with advanced androgen-independent prostate cancer participate in an open-labeled study of 1α,24-(OH)2D2. […] On admission to the study, patients begin a course of therapy with intravenous 1α,24-(OH)2D2 lasting 26 weeks, while discontinuing any previous use of calcium supplements, vitamin D supplements, and vitamin D hormone replacement therapies. During treatment, the patients are monitored at regular intervals for: (1) hypercalcemia, hyperphosphatemia, hypercalciuria, hyperphosphaturia and other toxicity; (2) evidence of changes in the progression of metastatic disease; and (3) compliance with the prescribed test drug dosage.\n(§2) The study is conducted in two phases. During the first phase, the maximal tolerated dosage (MTD) of daily 1α,24-(OH)2D2 is determined by administering progressively higher dosages to successive groups of patients. All doses are administered in the morning before breakfast. The first group of patients is treated with 25.0 μg of 1α,24-(OH)2D2 (formulated with 2.5% w/w benzyl alcohol, 0.5%–2.5% w/w TWEEN™-20, and 20 ppm BHT). Subsequent groups of patients are treated with 50.0, 75.0 and 100.0 μg/day. Dosing is continued uninterrupted for the duration of the study unless serum calcium exceeds 11.6 mg/dL, or other toxicity of grade 3 or 4 is observed, in which case dosing is held in abeyance until resolution of the observed toxic effect(s) and then resumed at a level which has been decreased by 10.0 μg.\n(§3) During the second phase, patients are treated with 1α,24-(OH)2D2 for 24 months at 0.5 and 1.0 times the MTD."}, "[2]": {"test_system": "End Stage Renal Disease patients with secondary hyperparathyroidism", "experiment": "Double-blind placebo-controlled study in ESRD hemodialysis patients exhibiting secondary hyperparathyroidism", "format": "in vivo, human", "excerpt": "Up to 120 ESRD (End Stage Renal Disease) patients undergoing chronic hemodialysis are studied in a multicenter, double-blind, placebo-controlled study based in two major U.S. metropolitan areas. The selected patients reside in two major metropolitan areas within the continental U.S., have ages between 20 and 75 years and have a history of secondary hyperparathyroidism. They have been on hemodialysis for at least four months, have a normal (or near normal) serum albumin, and have controlled serum phosphorus (often by using oral calcium phosphate binders).\nOn admission to the study, each patient is assigned at random to one of two treatment groups. One of these groups receives two consecutive 12-week courses of therapy with 1α-OH-vitamin D2 (doxercalciferol); the other receives a 12-week course of therapy with 1α-OH-vitamin D2 followed, without interruption, by a 12-week course of placebo therapy. Each patient discontinues any 1, α,25-(OH)2-vitamin D3 therapy for eight weeks prior to initiating 1α-OH-vitamin D2 therapy (daily dose of 4 μg doxercalciferol, formulated with 2.5% w/w benzyl alcohol, 0.5%–2.5% w/w TWEEN™-20, and 20 ppm BHT). Throughout this eight-week washout (or control) period and the two subsequent 12-week treatment periods, patients are monitored weekly for serum calcium and phosphorus. Serum intact PTH is monitored weekly or biweekly, and bone-specific serum markers, serum vitamin D metabolites, serum albumin, blood chemistries, hemoglobin and hematocrit are monitored at selected intervals.\nDuring the study, patients undergo routine hemodialysis (three times per week) using a 1.24 mM calcium dialysate and ingest calcium phosphate binders (such as calcium carbonate or calcium acetate) in an amount sufficient to keep serum phosphate controlled (6.9 mg/dL). Patients who develop persistent mild hypercalcemia or mild hyperphosphatemia during the treatment periods reduce their 1α-OH-vitamin D2 to 4 μg three times per week (or lower). Patients who develop marked hypercalcemia or marked hyperphosphatemia immediately suspend treatment. Such patients are monitored at twice weekly intervals until the serum calcium or phosphorus is normalized, and resume 1α-OH-vitamin D2 dosing at a rate which is 4 μg three times per week (or lower)."}, "[3]": {"test_system": "elderly subjects with secondary hyperparathyroidism", "experiment": "Open label study of elderly subjects with elevated blood PTH from secondary hyperparathyroidism", "format": "in vivo, human", "conditions": "oral 2.5 μg/day, twelve weeks", "procedure": "Thirty elderly subjects with secondary hyperparathyroidism are enrolled in an open label study. The selected subjects have ages between 60 and 100 years and have elevated serum PTH levels (greater than the upper limit of young normal range). Subjects also have femoral neck osteopenia (femoral neck bone mineral density of […]).\nSubjects are requested to keep a diet providing approximately 500 mg calcium per day without the use of calcium supplements. For a twelve week treatment period, subjects self-administer orally 2.5 μg/day 1α-OH-vitamin D2.(i.e., 2.5 μg doxercalciferol, 2.5% w/w benzyl alcohol, 0.5%–2.5% w/w TWEEN™-20, and 20 ppm BHT) At regular intervals throughout the treatment period, subjects are monitored for serum PTH levels, serum calcium and phosphorus, and urine calcium and phosphorus levels. Efficacy is evaluated by pre- and post-treatment comparisons of serum PTH levels. Safety is evaluated by serum and urine calcium and phosphorus values."}, "[4]": {"test_system": "patients with advanced androgen-independent prostate cancer", "experiment": "Study of Example 7 repeated for 1α-(OH)D2 in prostate cancer", "format": "in vivo, human", "conditions": "for progression of metastatic disease (CAT scans, X-rays, bone scans): phase two, after two years", "excerpt": "as §1, §2, §3\nThe study of Example 7 is repeated for the active vitamin D compound, 1α-(OH)D2 (formulated with 2.5% w/w benzyl alcohol, 0.5%–2.5% w/w TWEEN™-20, and 20 ppm BHT). […] In summary, the present invention provides an improved formulation for lipophilic drug agents that are only slightly soluble in an aqueous vehicle. The formulation in addition to the lipophilic drug agent includes a lipophilic antioxidant, a non-ionic solubilizer or surfactant, and optionally, an agent which is an organic solvent/ preservative."}, "[5]": {"conditions": "treated with the MTD for at least six months"}}}
{"smiles": "C=C1/C(=C\\C=C2/CCC[C@]3(C)[C@@H]([C@H](C)/C=C/C(C)(O)C(C)C)CC[C@@H]23)C[C@H](O)C[C@H]1O", "note": "(stereo partly drawn) [1α,24-(OH)2D2, 1α,24-dihydroxyvitamin D2]", "values": [{"measurement": "circulating levels of 1α,25-(OH)2D2", "setting": "[1]; blood samples of patients treated with 1α,24-(OH)2D2", "value": "suppressed, often to undetectable levels"}, {"measurement": "dose dependence of levels of circulating 1α,24-(OH)2D2", "setting": "[1]; human, in vivo", "value": "increase proportionately with the dosage administered"}, {"measurement": "maximum levels of circulating 1α,24-(OH)2D2", "setting": "[1]; human, in vivo", "value": "above 100 pg/mL"}, {"measurement": "serum and urine calcium", "setting": "[1]; human, in vivo", "value": "elevated in a dose responsive manner"}, {"measurement": "progression of metastatic disease (CAT scans, X-rays, bone scans)", "setting": "[1]; higher dosage (1.0 times the MTD)", "value": "stable disease and partial or complete remission in many patients"}, {"measurement": "progression of metastatic disease (CAT scans, X-rays, bone scans)", "setting": "[1]; lower dosage (0.5 times the MTD)", "value": "stable disease or partial remission in many patients"}, {"measurement": "bone pain associated with metastatic disease", "setting": "[1]; [5]", "value": "significantly diminished"}]}
{"smiles": "C=C1/C(=C\\C=C2/CCC[C@]3(C)[C@@H]([C@H](C)/C=C/[C@H](C)C(C)C)CC[C@@H]23)C[C@@H](O)C[C@@H]1O", "note": "[1α-OH-vitamin D2, 1α-hydroxyvitamin D2]", "values": [{"measurement": "reduction of serum PTH levels (study conclusion)", "setting": "[2]; ESRD patients", "value": "effective in reducing serum PTH levels"}, {"measurement": "mean serum PTH after initiation of dosing", "setting": "[2]; ESRD patients, daily dose of 4 μg doxercalciferol formulated with benzyl alcohol, TWEEN-20, BHT", "value": "less than 50 % of pretreatment levels"}, {"measurement": "safety compared with currently used therapies (study conclusion)", "setting": "[2]; despite higher dosages and concurrent high levels of oral calcium phosphate binder", "value": "safer than currently used therapies"}, {"measurement": "serum levels of calcium and phosphorus", "setting": "[2]; end of first 12-week treatment period, for end stage renal disease patients", "value": "normal or near normal"}, {"measurement": "hypercalcemia", "setting": "[2]; patients exhibiting excessive suppression of serum PTH, corrected by dosage reduction", "value": "transient mild hypercalcemia is observed"}, {"measurement": "PTH levels, pre- and post-treatment comparison", "setting": "[3]", "value": "significantly reduce PTH levels"}, {"measurement": "incidence of hypercalcemia, hyperphosphatemia, hypercalciuria and hyperphosphaturia", "setting": "[3]", "value": "insignificant incidence"}, {"measurement": "progression of metastatic disease (CAT scans, X-rays, bone scans)", "setting": "[4]; higher dosage", "value": "stable disease and partial or complete remission in many patients"}, {"measurement": "progression of metastatic disease (CAT scans, X-rays, bone scans)", "setting": "[4]; lower dosage", "value": "stable disease or partial remission in many patients"}, {"measurement": "bone pain associated with metastatic disease", "setting": "[4]; [5]", "value": "significantly diminished"}]}
